Reference: patent US6613942B1 (Novo Nordisk A/S, priority 1997, dated 2003)

Test system: not given
Details: not given

melting point [°C]	SMILES
134 to 136	CCN(CC)CCN(CCOc1ccc(/C=N/NC(=O)c2ccc(O)c(Cl)c2)c2ccccc12)Cc1ccc(OC(F)(F)F)cc1 [Example 143, 3-Chloro-4-hydroxybenzoic Acid {4-[2-[N′-(2-N,N-Diethylaminoethyl)-N′-(4-trifluoromethoxy-benzylamino)]]ethoxy-1-naphthylmethylene}hydrazide]
162 to 164	COc1cc(OCCN2CCc3ccccc3C2)ccc1/C=N/NC(=O)c1ccc(O)c(N)c1 [Example 792, 3-Amino-4-hydroxybenzoic Acid {4-[2-(1,2,3,4-Tetrahydro-isoquinolin-2-yl)ethoxy]-2-methoxybenzylidene}hydrazide]
174 to 175	COc1cc(/C=N/NC(=O)c2ccc(O)c(N)c2)cc(OC)c1OCc1ccc(C(C)C)cc1 [Example 793, 3-Amino-4-hydroxybenzoic Acid [4-(4-Isopropylbenzyloxy)-3,5-dimethoxybenzylidene]-hydrazide]
157 to 160	COc1cc(OCC(=O)NC2CCN(Cc3ccccc3)C2)ccc1/C=N/NC(=O)c1ccc(O)c(N)c1 [Example 794, (R)-2-{4-[(3-Amino-4-hydroxybenzoyl)hydrazonomethyl]-3-methoxyphenoxy}-N-(1-benzylpyrrolidin-3-yl)acetamide]
187 to 192	Nc1cc(C(=O)N/N=C/c2ccc(OCC(=O)N[C@@H]3CCN(Cc4ccccc4)C3)c3ccccc23)ccc1O [Example 795, (R)-2-{4-[(3-Amino-4-hydroxybenzoyl)hydrazonomethyl]naphthyl-1-yloxy}-N-(1-benzylpyrrolidin-3-yl)acetamide]
192 to 193	Nc1cc(C(=O)N/N=C/c2ccc(OCC(=O)N[C@H]3CCN(Cc4ccccc4)C3)c3ccccc23)ccc1O [Example 797, (S)-2-{4-[(3-Amino-4-hydroxybenzoyl)hydrazonomethyl]naphthyl-1-yloxy}-N-(1-benzylpyrrolidin-3-yl)acetamide]
235 to 236.5	COc1cc(NC(=O)COc2ccc(OC(F)(F)F)cc2)ccc1/C=N/NC(=O)c1ccc(O)c(Cl)c1 [Example 804]
236 to 238	COc1cc(NC(=O)c2ccc3ccccc3n2)ccc1/C=N/NC(=O)c1ccc(O)c(Cl)c1 [Example 805, Quinoline-2-carboxylic Acid (4-[(3-Chloro-4-hydroxybenzoyl)hydrazonomethyl]-3-methoxyphenyl}amide]
216 to 218	COc1cc(/C=N/NC(=O)c2ccc(O)c(Cl)c2)ccc1NC(=O)COc1ccc(OC(F)(F)F)cc1 [Example 806, N-{4-[(3-Chloro-4-hydroxybenzoyl)hydrazonomethyl]-2-methoxyphenyl}-2-(4-trifluoromethoxyphenoy)acetamide]
159 to 162	COc1cc(/C=N/NC(=O)c2ccc(O)c(Cl)c2)ccc1NC(=O)c1ccc2ccccc2n1 [Example 807, Quinoline-2-carboxylic Acid {4-[(3-Chloro-4-hydroxybenzoyl)hydrazonomethyl]-2-methoxyphenyl}amide]
216 to 218	COc1cc(NC(=O)COc2ccc(Cl)cc2)ccc1/C=N/NC(=O)c1ccc(O)c(Cl)c1 [Example 808, N-(4-[(3-Chloro-4-hydroxybenzoyl)hydrazonomethyl]-3-methoxyphenyl}-2-(4-chlorophenoxy)acetamide]

Biological target: rat liver receptor (Rattus norvegicus, UniProt P30082)
Details: literature, Bioorganic and Medicinal Chemistry Letters 2(9):915-918; cited from earlier work

rat liver receptor, sequence (P30082 27-485): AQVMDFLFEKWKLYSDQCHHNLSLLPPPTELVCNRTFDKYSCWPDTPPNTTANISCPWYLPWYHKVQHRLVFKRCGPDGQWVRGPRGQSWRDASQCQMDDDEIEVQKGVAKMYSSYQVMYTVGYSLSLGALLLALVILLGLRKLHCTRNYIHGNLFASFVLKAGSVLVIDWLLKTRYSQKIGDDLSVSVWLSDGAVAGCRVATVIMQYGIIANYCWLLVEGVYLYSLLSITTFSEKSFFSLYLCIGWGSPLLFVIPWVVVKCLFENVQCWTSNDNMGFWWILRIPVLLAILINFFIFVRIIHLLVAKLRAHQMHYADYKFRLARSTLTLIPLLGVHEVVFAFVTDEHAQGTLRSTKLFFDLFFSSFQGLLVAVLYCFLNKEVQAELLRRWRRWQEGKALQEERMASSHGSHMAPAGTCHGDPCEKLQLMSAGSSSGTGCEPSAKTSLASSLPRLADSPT

SMILES	displacement of glucagon from the rat liver receptor
CN(C)CCCN(C)c1nc2cc(Cl)c(Cl)cc2nc1C=Cc1ccccc1 [(2-styryl-3-[3-(dimethylamino)propylmethyl-amino]-6,7-dichloroquinoxaline]	displace glucagon from the rat liver receptor
